pIC50: −log10 of the molar value.

T1 sequence (P05067 672-711): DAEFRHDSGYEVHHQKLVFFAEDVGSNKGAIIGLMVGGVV
Recombinant human PAI-1, sequence (P05121 24-402): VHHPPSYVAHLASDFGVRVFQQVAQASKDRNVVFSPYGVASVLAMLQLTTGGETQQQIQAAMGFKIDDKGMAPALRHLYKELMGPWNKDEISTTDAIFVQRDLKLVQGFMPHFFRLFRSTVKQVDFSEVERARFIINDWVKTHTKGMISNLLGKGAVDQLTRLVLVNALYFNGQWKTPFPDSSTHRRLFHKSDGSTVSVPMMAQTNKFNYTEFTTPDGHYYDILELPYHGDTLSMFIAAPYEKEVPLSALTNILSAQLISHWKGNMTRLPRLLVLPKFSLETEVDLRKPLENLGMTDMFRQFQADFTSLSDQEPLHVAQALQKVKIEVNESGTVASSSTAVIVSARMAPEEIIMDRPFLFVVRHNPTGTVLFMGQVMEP

One assay addresses T1, Aβ 1-40 (Homo sapiens, UniProt P05067).
T1 construct: Lyophilized Aβ 1-40 was dissolved to 500 μM in 4 mM NaOH and divided in two parts
Kind of assay: Aβ aggregation assay for testing of inhibition of amyloid fibril formation (Thioflavin T fluorescence). The assay is classed as biochemical. The following applies: 100 μM Aβ 1-40, 5% DMSO, 37° C., 24 hours; FIG. 1. As for the experimental part: Effect of test substances on aggregation of Aβ 1-40 was measured by detecting fluorescence of added Thioflavin T (ThT). The ThT-fluorescence of Aβ 1-40 aggregated in the presence of the indicated substances was compared to the ThT-fluorescence of Aβ 1-40 aggregated in the presence of 5% DMSO.
Aβ Aggregation Assay for Testing of Inhibition Amyloid Fibril Formation
Lyophilized Aβ 1-40 was dissolved to 500 μM in 4 mM NaOH and divided in two parts. One part was diluted to 20 μM in PBS (50 mM phosphate buffer pH 7.4 containing 100 mM NaCl) and coated onto an ELISA 96-well plate (Costar) for 1 h at room temperature. The plate was washed in PBS to remove unbound Aβ 1-40. Substances (in DMSO) were diluted with PBS to different concentrations in the Aβ 1-40 coated ELISA plate. The second part of NaOH-solubilized Aβ 1-40 was thereafter added to each well to yield a final concentration of 100 μM Aβ 1-40 and 5% DMSO. The plate was incubated at 37° C. with agitation (600 rpm) for 24 hours to allow aggregation of Aβ 1-40.
The Aβ-substance mix was after aggregation diluted 10 times with 25 μM Thioflavin T (ThT) in PBS. The ThT-fluorescence was detected immediately by excitation at 450 nm and emission at 482 nm. The ThT-fluorescence of Aβ 1-40 aggregated with substances was compared to the ThT-fluorescence of Aβ 1-40 aggregated in the presence of 5% DMSO.
For the compound `CC(C)Cc1n[nH]c2c(=O)n3c(c(-c4cccc(C(F)(F)F)c4)c12)SC[C@H]3C(=O)O` [Example 21, (7R)-3-isobutyl-9-oxo-4-[3-(trifluoromethyl)phenyl]-1,6,7,9-tetrahydropyrazolo[4,3-d][1,3]thiazolo[3,2-a]pyridine-7-carboxylic acid], the “Effect on aggregation of Aβ 1-40 (ThT-fluorescence compared to 5% DMSO)” value is listed as “interfere with the formation of amyloid fibrils”. The same measure, in the same setting: as for `CC(C)CC1=NN=C2C(=O)N3C(SC[C@H]3C(=O)O)C(c3ccccc3)=C12` (stereo partly drawn) [Example 37, (7R)-6,7-dihydro-3-isobutyl-4-phenyl-pyrazolo[4,5-d]thiazolo[3,2-a]pyridine-9-one-7-carboxylic acid], the entry is “interfere with the formation of amyloid fibrils”. Still for that read-out and setting: the result for `COc1ccc(C2=NN=C3C(=O)N4C(SC[C@H]4C(=O)O)C(c4ccccc4)=C32)cc1` (stereo partly drawn) [Example 39, (7R)-6,7-dihydro-3-(4-methoxyphenyl)-4-phenyl-pyrazolo[4,5-d]thiazolo[3,2-a]pyridine-9-one-7-carboxylic acid] reads “interfere with the formation of amyloid fibrils”.

A further assay concerns the target Recombinant human PAI-1 (Homo sapiens, UniProt P05121). Kind of assay: Plasma clot lysis assay for testing of PAI-1 inhibitors. The format is biochemical. Conditions: clot lysis in platelet-poor plasma (50%), PAI-1 10-13 ng/mL, t-PA 34 ng/mL, 37° C.; IC50 = concentration at which a halving of the clot lysis time was reached. As for the experimental part:
Plasma Clot Lysis Assay for Testing of PAI-1 Inhibitors
CaCl2, p.a. Stock solution 0.1 M in water.
PAI-1 inhibitors dissolved in 100% DMSO.
Clot Lysis in Platelet-Poor Plasma
Blood from healthy fat-fasting volunteers was collected into 0.13 M trisodium citrate, 9 parts blood to 1 part anticoagulant. The tubes were centrifuged at 2000×g, 20 min, at RT. The supernatant, ie, the platelet poor plasma was pooled, aliquoted and frozen at −85° C. until used. At the day of experiment the plasma was thawed in a water bath and temperated to 37° C. All other constituents, except t-PA, were prewarmed to 37° C. To each well on a microtiter plate, 25 μL CaCl2, 25 μL PAI-1 or 25 μL PAI-1 vehicle, 20 μL saline and 5 μL drug or 5 μL vehicle (100% DMSO) were added. Plasma was mixed with cold t-PA solution in the relation 4 parts plasma with 1 part t-PA, just before adding 125 μL of this mixture to each well. The final concentration was 12.5 mM for CaCl2, 10-13 ng/mL for PAI-1, 34 ng/mL for t-PA, and the compounds were tested at a final concentration range 0.1 nM to 0.25 mM. The final plasma concentration was 50%, as a result of the different additives. The plate, covered with a plastic lid, was placed in a Microplate reader (Molecular Devices, US) and gently shaken. The change in turbidity was immediately monitored as a change in absorbance at 405 nm at 37° C. Data points were collected at intervals of 2 min, during a period of 10 h. After finished reading, the absorbance data were transformed into files containing the time and absorbance values for each well. The clot longevity, ie, the time the clot exists, was determined as the time between clot formation, ie, positive Vmax, and clot lysis, ie, negative Vmax. The effect of the drugs, ie, shortening of the longevity for the clot, was expressed as the concentration at which a halving of the clot lysis time was reached, the IC50 (pIC50=−log IC50). Control clot lysis time, set to 100%, was determined in the presence of PAI-1, and the maximal effect, ie, the shortest lysis time that can be reached under defined conditions in this system, in the absence of PAI-1 was set to 0%.
Compounds having a pIC50 higher than 4 were considered as being active.
Broadly, the pIC50 is −log10 of the IC50, conventionally taken in molar units. For the compound `CC(C)Cc1n[nH]c2c(=O)n3c(c(-c4cccc(C(F)(F)F)c4)c12)SC[C@H]3C(=O)O` [Example 21, (7R)-3-isobutyl-9-oxo-4-[3-(trifluoromethyl)phenyl]-1,6,7,9-tetrahydropyrazolo[4,3-d][1,3]thiazolo[3,2-a]pyridine-7-carboxylic acid], the pIC50 is 4.60. On to `CCCc1n[nH]c2c(=O)n3c(c(-c4cccc(C(F)(F)F)c4)c12)SC[C@H]3C(=O)O` [Example 22, (7R)-9-oxo-3-propyl-4-[3-(trifluoromethyl)phenyl]-1,6,7,9-tetrahydropyrazolo[4,3-d][1,3]thiazolo[3,2-a]pyridine-7-carboxylic acid], for which the pIC50 was 4.70. For the compound `CCCCCc1n[nH]c2c(=O)n3c(c(-c4cccc(C(F)(F)F)c4)c12)SC[C@H]3C(=O)O` [Example 23, (7R)-9-oxo-3-pentyl-4-[3-(trifluoromethyl)phenyl]-1,6,7,9-tetrahydropyrazolo[4,3-d][1,3]thiazolo[3,2-a]pyridine-7-carboxylic acid], the negative logarithm of the IC50 (pIC50) was 4.80. Regarding `O=C(O)[C@@H]1CSc2c(-c3cccc(C(F)(F)F)c3)c3cn[nH]c3c(=O)n21` [Example 24, (7R)-9-oxo-4-[3-(trifluoromethyl)phenyl]-1,6,7,9-tetrahydropyrazolo[4,3-d][1,3]thiazolo[3,2-a]pyridine-7-carboxylic acid], the pIC50 was 4.60. Still for that read-out and setting: the result for `CCCCCCc1n[nH]c2c(=O)n3c(c(-c4cccc(C(F)(F)F)c4)c12)SC[C@H]3C(=O)O` [Example 25, (7R)-3-hexyl-9-oxo-4-[3-(trifluoromethyl)phenyl]-1,6,7,9-tetrahydropyrazolo[4,3-d][1,3]thiazolo[3,2-a]pyridine-7-carboxylic acid] reads 4.90; that for `CCn1nc(CC(C)C)c2c(-c3cccc(C(F)(F)F)c3)c3n(c(=O)c21)[C@H](C(=O)O)CS3` [Example 27, (7R)-1-ethyl-3-isobutyl-9-oxo-4-[3-(trifluoromethyl)phenyl]-1,6,7,9-tetrahydropyrazolo[4,3-d][1,3]thiazolo[3,2-a]pyridine-7-carboxylic acid], 4.10. Still for that read-out and setting: the result for `CCCCCCc1n[nH]c2c(=O)n3c(c(-c4ccc(F)c(F)c4)c12)SC[C@H]3C(=O)O` [Example 28, (7R)-4-(3,4-difluorophenyl)-3-hexyl-9-oxo-1,6,7,9-tetrahydropyrazolo[4,3-d][1,3]thiazolo[3,2-a]pyridine-7-carboxylic acid] reads 4.30; that for `CCCCCCc1n[nH]c2c(=O)n3c(c(-c4ccc(F)c(F)c4)c12)SC[C@H]3C(=O)NS(=O)(=O)c1ccccc1` [Example 29, (7R)-4-(3,4-difluorophenyl)-3-hexyl-9-oxo-N-(phenylsulfonyl)-1,6,7,9-tetrahydropyrazolo[4,3-d][1,3]thiazolo[3,2-a]pyridine-7-carboxamide], 5.20.
